Reference: publication PMC12040169 (PLOS Biology, 2025)

Experiment: in vitro
Conditions: human, hela cells, % viability

SMILES | viability at 28.5 h, 10 µM
CCCCSc1nc(N)cc(N2CCC3(CCNC(=O)CC3)CC2)n1 [CBK307001] | 98.2%
c1ccc(CC2CCN(Cc3cccnc3)CC2)cc1 [CBK126381] | 95.9%
COC(=O)c1ccc(NC(=S)N2CCC(C(N)=O)CC2)cc1 [CBK267232] | 90.2%
Cc1nn(-c2ccccc2)c2[nH]c(=O)c(CNC(C)C)cc12 [CBK282899] | 93.1%
Cc1c(-n2nnnc2SC(C)c2ccccc2)c(=O)n(-c2ccccc2)n1C (centres unmarked) [CBK295651] | 92.9%
O=C(NC1Cc2ccccc2C1)c1cnccc1C(F)(F)F [CBK200353] | 98.6%
CS(=O)(=O)c1ccc(CNC(=O)c2cc(-c3ccc(C(=O)N4CCOCC4)cc3)cnc2N)cc1 [CBK158599] | 93%
COc1cccc2cc(C(=O)NCCCSC)oc12 [CBK149793] | 99.6%
Cc1nc2ccc(NC(=O)CC3CCN(C(=O)CC4CCCCC4)CC3)cc2[nH]1 [CBK285967] | 94.6%
O=S(=O)(c1ccc(C(F)(F)F)cc1Cl)N1CCCN(Cc2ccnc3ccccc23)CC1 [CBK062942] | 101%
CC1(C)Cc2c(ccc3ccccc23)C(NCC(=O)O)=N1 [CBK262559] | 97.6%
Cc1cc(NC(=O)CN2CCOC(CNc3cccnn3)C2)on1 (centres unmarked) [CBK305231] | 109%
CC(=S)NCC1CC(c2ccc(N3CC[S+]([O-])CC3)c(F)c2)=NO1 (centres unmarked) [CBK017992] | 110%
CC(C)CNc1nc(SCC(N)=O)nc(N(C)C)n1 [CBK269579] | 93.8%
CCN(CC)CCC(C(=O)c1ccccc1)S(C)(=O)=O (centres unmarked) [CBK022802] | 88.8%
O=C(CCC(=O)Nc1ccccc1)N/N=C/c1ccco1 [CBK261968] | 108%
N#CCCN(CCc1ccccc1)S(=O)(=O)c1cccc2nsnc12 [CBK261138] | 104%
Cc1ccc(-c2nc3ncccc3o2)cc1NC(=O)c1cccnc1 [CBK268774] | 100%
COc1ccc(N2C(=O)CC(Nc3ccc(Cc4nc5ccccc5[nH]4)cc3)C2=O)cc1 (centres unmarked) [CBK266480] | 96.9%
COc1ccccc1/C=C/c1nn2c(C(C)C)nnc2s1 [CBK269501] | 79.3%
CC1(C)CC(=O)C2=C(C1)Nc1ccccc1N(C(=S)NCc1ccco1)C2c1cccnc1 (centres unmarked) [CBK267342] | 89.4%
CSc1nc2c(cc1C#N)CCC2 [CBK026532] | 108%

SMILES | viability at 28.5 h, 10 µM
NC(=O)C1(Cc2ccc(-c3ccccc3)cc2)CCN(C(=O)Cc2ccccc2)CC1 [CBK285771] | 115%
Cn1nc(C(C)(C)C)cc1C(=O)N1CCC(N2C(=O)OCC2(C)C)CC1 [CBK044234] | 81.5%
Cc1ccc(CNC(=O)NCCc2cccs2)cc1 [CBK044960] | 88.5%
Cc1ccc2nc(C(=O)O)cc(C(=O)O)c2c1 [CBK261174] | 91.6%
Cc1ccc(C(CNCc2cn(C)nc2-c2cccnc2)N(C)C)cc1 (centres unmarked) [CBK305343] | 109%
C#CCNC(=O)C1CCCN(c2nc3ccccc3n2C)C1 (centres unmarked) [CBK282336] | 89.6%
Nn1cnn2c(SCc3ccc(Cl)cc3)nnc12 [CBK263193] | 106%
Cc1ccc2oc(-c3cc(NC(=O)Cn4cnc5c(=O)n(C)c(=O)n(C)c54)ccc3O)nc2c1 [CBK267112] | 95.1%
Cc1ccc(NC2C=CS(=O)(=O)C2)cc1 (centres unmarked) [CBK057487] | 89.5%
Cc1nccn1CC1CCCN(Cc2nc3ccccc3n2C)C1 (centres unmarked) [CBK281975] | 110%
Cc1nc(CC(=O)NC(Cc2ccsc2)c2cccnc2)cs1 (centres unmarked) [CBK285389] | 110%
COc1ccc(C(=O)N2C[C@H]3Cc4c(n[nH]c4C(F)F)[C@H]3C2)s1 [CBK283425] | 95.4%
CCC1CCCCN1C(=O)c1c(Cl)cccc1Cl (centres unmarked) [CBK081303] | 99.3%
O=S(=O)(NC1c2cccc3cccc(c23)C1Sc1ncccn1)c1ccccc1 (centres unmarked) [CBK264706] | 103%
CC(=O)Oc1ccc2c(=O)cc(N(C)C)oc2c1C [CBK016581] | 60.5%
O=C(O)COc1ccc(S(=O)(=O)Nc2ccc(F)cc2)cc1 [CBK268442] | 105%
CC1CCCN(CC(C)(C)NC(=O)c2ccnn2C(F)F)C1 (centres unmarked) [CBK282099] | 98.4%
CC1CCCC(C)N1S(=O)(=O)c1ccc(NS(=O)(=O)c2cccc(C(=O)O)c2)cc1 (centres unmarked) [CBK296944] | 94.6%
CC(C)Cc1cc(CNC(=O)Nc2cc(-c3cccnc3)nn2C)no1 [CBK307048] | 84.9%
Cc1ncc([N+](=O)[O-])n1CCSc1nnc(SCc2ccccc2)s1 [CBK264751] | 86.4%
Cc1csc2ncnc(N3CCN(C(=O)C4CC4)CC3)c12 [CBK023593] | 112%
Cc1cccc(C(=O)Nc2cccc(OCC(=O)O)c2)c1 [CBK268599] | 114%

SMILES | viability at 28.5 h, 10 µM
CC1c2ccsc2CCN1C(=O)COc1cccc(Br)c1 (centres unmarked) [CBK305434] | 91.9%
O=C(CCCN1CCN(CCCC(=O)c2ccc(F)cc2)CC1)c1ccc(F)cc1 [CBK025317C] | 89.1%
Cc1nn(C(C)CC(=O)N2CCCC(CN(C)C)C2)c(C)c1Cl (centres unmarked) [CBK282137] | 107%
CCc1noc(C)c1C(=O)NCCN1CCCCC1C (centres unmarked) [CBK282219] | 98.9%
O=C(Nc1cccc(-c2nnn[nH]2)c1)c1ccc(C2CCCCC2)cc1 [CBK296712] | 114%
O=C(O)CCn1c(C2CCCCC2)nc2ccccc21 [CBK111480] | 86.2%
c1ccc(CCNc2cncc(-c3cc4ccccc4o3)n2)nc1 [CBK066036] | 96.5%
O=C(CCn1c(C(F)(F)F)cc2cccnc21)N1CCOCC1 [CBK284869] | 96.4%
FC(F)(F)c1ccc(CN2CCCN(c3ccnc(OCC4COc5ccccc5O4)n3)CC2)cc1 (centres unmarked) [CBK083233T] | 93%
COc1cccc(C(=O)N2CCN(C(=O)Nc3ccc(C(F)(F)F)cc3)CC2)c1 [CBK154788] | 96.4%
Cc1noc(C)c1NC(=O)c1c(C)noc1C [CBK200305] | 96.4%
O=S(=O)(c1ccc(F)cc1F)N1CCN(Cc2ccc3c(c2)OCO3)CC1 [CBK074744] | 91.7%
Cc1nnc(SCCCCSc2nnc(C)n2N)n1N [CBK265686] | 88.5%
CCCC(=O)c1ccc(S(=O)(=O)N2CCN(Cc3ccc(F)c(C(F)(F)F)c3)CC2)cc1 [CBK063162] | 101%
C=C(C)CN1CCN(C(=O)c2cc3cccc(OC)c3oc2=O)CC1 [CBK269211] | 59%
CCN(CCO)c1ccc(Nc2nc(-c3c(OC)cccc3OC)cn3ccnc23)cc1 [CBK066267] | 89.9%
Cn1cc(C(=O)NC2CCN(C(=O)c3cccc(C#N)c3)CC2)cn1 [CBK305673] | 110%
COCCc1noc(CC2CCN(c3cc(C)ncc3C#N)CC2)n1 [CBK304092] | 90.4%
CC1(C)[N+]([O-])=CC(c2ccc(-c3ccccc3)cc2)=[N+]([O-])C1(C)C [CBK267825] | 98.7%
O=C(CCn1ncc2ccccc21)N1CCC(c2ccncc2)CC1 [CBK282395] | 82%
O=C(CSc1nnc(-c2cccnc2)n1-c1ccc(Br)cc1)Nc1ccc2c(c1)OCO2 [CBK266153] | 93.8%
